The source of these data is patent US20230263742A1, “A LIPID” (Stemirna Therapeutics Co., Ltd., priority 2021, published 2023).

For the assay, the system named is Balb/C mice. As to the kind of experiment: Luc expression in injection site and liver site after intramuscular administration (Example 5). It counts as in vivo. Conditions: 5 μg Luc mRNA-LNP (DSPC) intramuscularly, Balb/C mice n=3, 6 h. Here is the method: Further bioluminescence studies were performed to investigate the delivery efficiency of nanoparticle compositions including various lipid compounds according to the present invention. The formulations containing reference cationic lipid M62, M63, M118, and M119 (corresponding to Compound 62, 63, 118, and 119 in PCT/US2018/022717 (WO2018/170306), respectively) were evaluated for comparison. Nanoparticle compositions including DSPC as an optimized phospholipid, cholesterol as a structural lipid, PEG-DMG as a PEG lipid, an RNA, and a compound above mentioned were prepared according to or via methods similar to those described in Examples 1 and 2. The ratios of the lipids were 50:10:38.5:1.5 mol % for the lipid of the present invention: DSPC: cholesterol: PEG-DMG. 5 μg of LNP solution containing luciferase mRNA was administered intramuscularly to Balb/C mice (n=3). 6 hours after administration, mice were injected intraperitoneally with 0.15 mg/kg of D-luciferin substrate. Within 15 minutes after the injection of the substrate, the fluorescence signal intensity in injection site and liver site were tested under a small animal in vivo imaging instrument. Tables 3-4 summarize the fluorescence signal intensity of the nanoparticle compositions including present invention lipids and the reference compounds in injection site and liver site.

As to `CCCCCCCCC(CCCCCCCC)OC(=O)CCCCCCCN(CCO)CCCCCCCC(=O)OCCCCc1ccc(CCCCCC)cc1` [SW-II-138-3], the “Luc expression in injection site, I.M. injection site, 6 h (ratio relative to SW-II-134-3 set as 1)” value is 1.294 and the “Luc expression in liver site, Liver site upon I.M., 6 h (ratio relative to SW-II-137-1 set as 1)” value is on record as 2.850.

Turning to `CCCCCCCCC(CCCCCCCC)OC(=O)CCCCCCCN(CCO)CCCCCCCC(=O)OCCCCc1ccc(CCCC)cc1` [SW-II-138-1], the “Luc expression in injection site, I.M. injection site, 6 h (ratio relative to SW-II-134-3 set as 1)” value was 1.972 and the “Luc expression in liver site, Liver site upon I.M., 6 h (ratio relative to SW-II-137-1 set as 1)” value is reported as 1.430.

Take `CCCCCCCCC(CCCCCCCC)OC(=O)CCCCCCCN(CCO)CCCCCCCC(=O)OCCCCc1ccc(CCCCC)cc1` [SW-II-138-2]: the “Luc expression in injection site, I.M. injection site, 6 h (ratio relative to SW-II-134-3 set as 1)” value is given as 2.826 and the “Luc expression in liver site, Liver site upon I.M., 6 h (ratio relative to SW-II-137-1 set as 1)” value is 3.318.

Turning to `CCCCCCCCCOC(=O)CCCCCCCN(CCO)CCCCCCCC(=O)OCCc1ccc(CCCCCC)c(CCCCCC)c1` [SW-II-134-1], the “Luc expression in injection site, I.M. injection site, 6 h (ratio relative to SW-II-134-3 set as 1)” value is on record as 1.899.

For the compound `CCCCCCCCCOC(=O)CCCCCCCN(CCO)CCCCCCCC(=O)OCCCc1ccc(CCCCC)c(CCCCC)c1` [SW-II-135-1], the “Luc expression in injection site, I.M. injection site, 6 h (ratio relative to SW-II-134-3 set as 1)” value was 1.771.

In the case of `CCCCCCCCC(CCCCCCCC)OC(=O)CCCCCCCN(CCO)CCCCCCC(=O)OCc1ccc(CCCCCC)cc1` [SW-II-127], the “Luc expression in injection site, I.M. injection site, 6 h (ratio relative to SW-II-134-3 set as 1)” value turned out to be 1.743.

For the compound `CCCCCCCCCOC(=O)CCCCCCCN(CCO)CCCCCCCC(=O)OCCCCc1ccc(CCCCCC)c(CCCCCC)c1` [SW-II-136-2], the “Luc expression in injection site, I.M. injection site, 6 h (ratio relative to SW-II-134-3 set as 1)” value is reported as 1.110 and the “Luc expression in liver site, Liver site upon I.M., 6 h (ratio relative to SW-II-137-1 set as 1)” value stood at 1.131.

In the case of `CCCCCCCCC(CCCCCCCC)OC(=O)CCCCCCCN(CCO)CCCCCCCC(=O)OCCc1ccccc1CCCC` [SW-II-140-2], the “Luc expression in injection site, I.M. injection site, 6 h (ratio relative to SW-II-134-3 set as 1)” value came to 2.257 and the “Luc expression in liver site, Liver site upon I.M., 6 h (ratio relative to SW-II-137-1 set as 1)” value is reported as 6.991.

Regarding `CCCCCCCCCOC(=O)CCCCCCCN(CCO)CCCCCCCC(=O)OCCc1ccc(CCCC)c(CCCC)c1` [SW-II-134-3], the “Luc expression in injection site, I.M. injection site, 6 h (ratio relative to SW-II-134-3 set as 1)” value came to 1.000.

For the compound `CCCCCCCCC(CCCCCCCC)OC(=O)CCCCCCCN(CCO)CCCCCCCC(=O)OCCc1cccc(CCCC)c1` [SW-II-139-2], the “Luc expression in injection site, I.M. injection site, 6 h (ratio relative to SW-II-134-3 set as 1)” value amounted to 1.440 and the “Luc expression in liver site, Liver site upon I.M., 6 h (ratio relative to SW-II-137-1 set as 1)” value was determined as 1.355.

Turning to `CCCCCCCCC(CCCCCCCC)OC(=O)CCCCCCCN(CCO)CCCCCCCC(=O)OCCCc1ccc(CCCC)cc1` [SW-II-137-1], the “Luc expression in liver site, Liver site upon I.M., 6 h (ratio relative to SW-II-137-1 set as 1)” value was found to be 1.000.

For the compound `CCCCCCCCCOC(=O)CCCCCCCN(CCO)CCCCCCCC(=O)OCc1ccc(CCCCCC)c(CCCCCC)c1` [SW-II-115], the “Luc expression in injection site, I.M. injection site, 6 h (ratio relative to SW-II-134-3 set as 1)” value is 1.046.

In the case of `CCCCCCCCC(CCCCCCCC)OC(=O)CCCCCCCN(CCO)CCCCCCCC(=O)OCc1cccc(CCCCCC)c1` [SW-II-122], the “Luc expression in injection site, I.M. injection site, 6 h (ratio relative to SW-II-134-3 set as 1)” value was determined as 1.321.

As to `CCCCCCCCC(CCCCCCCC)OC(=O)CCCCCCCN(CCO)CCCCCCCC(=O)OCCCc1ccc(CCCCC)cc1` [SW-II-137-2], the “Luc expression in liver site, Liver site upon I.M., 6 h (ratio relative to SW-II-137-1 set as 1)” value was 1.206.

For the compound `CCCCCCCCC(CCCCCCCC)OC(=O)CCCCCCCN(CCO)CCCCCCCC(=O)OCCc1cccc(CCCCCC)c1` [SW-II-139-1], the “Luc expression in injection site, I.M. injection site, 6 h (ratio relative to SW-II-134-3 set as 1)” value is 1.807 and the “Luc expression in liver site, Liver site upon I.M., 6 h (ratio relative to SW-II-137-1 set as 1)” value is 2.355.

Consider `CCCCCCCCC(CCCCCCCC)OC(=O)CCCCCCCN(CCO)CCCCCCCC(=O)OCCCc1ccc(CCCCCC)cc1` [SW-II-137-3], for which the “Luc expression in injection site, I.M. injection site, 6 h (ratio relative to SW-II-134-3 set as 1)” value was 1.358 and the “Luc expression in liver site, Liver site upon I.M., 6 h (ratio relative to SW-II-137-1 set as 1)” value amounted to 1.981.

`CCCCCCCCCOC(=O)CCCCCCCN(CCO)CCCCCCCC(=O)OCCCc1ccc(CCCCCCC)c(CCCCCCC)c1` [SW-II-135-2]: the “Luc expression in injection site, I.M. injection site, 6 h (ratio relative to SW-II-134-3 set as 1)” value amounted to 1.028.

With `CCCCCCCCC(CCCCCCCC)OC(=O)CCCCCCCN(CCO)CCCCCCCC(=O)OCCc1ccccc1CCCCCC` [SW-II-140-1], the “Luc expression in injection site, I.M. injection site, 6 h (ratio relative to SW-II-134-3 set as 1)” value turned out to be 2.450 and the “Luc expression in liver site, Liver site upon I.M., 6 h (ratio relative to SW-II-137-1 set as 1)” value came out at 3.224.

On to `CCCCCCCCCOC(=O)CCCCCCCN(CCO)CCCCCCCC(=O)OCCc1ccc(CCCCCCCC)c(CCCCCCCC)c1` [SW-II-134-2], for which the “Luc expression in injection site, I.M. injection site, 6 h (ratio relative to SW-II-134-3 set as 1)” value was determined as 1.734.
